Values of other authors, collected in US20050143441A1, “Novel medical combination treatment of obesity involving 4,5-dihydro-1H-pyrazole derivatives having CB1-antagonistic activity” (priority 2003, published 2005).

What was measured:
[1] = clinically obese patients
[2] = system: excretion of fat from the diet; conditions: healthy male volunteers, 5 days
[3] = in vivo
[4] = system: carragheenin induced swelling; conditions: mice
plasma lipases = conditions: relative to THL
[5] = target: T1, porcine pancreatic lipase (Sus scrofa, UniProt P00591)
T1 sequence (P00591 1-450): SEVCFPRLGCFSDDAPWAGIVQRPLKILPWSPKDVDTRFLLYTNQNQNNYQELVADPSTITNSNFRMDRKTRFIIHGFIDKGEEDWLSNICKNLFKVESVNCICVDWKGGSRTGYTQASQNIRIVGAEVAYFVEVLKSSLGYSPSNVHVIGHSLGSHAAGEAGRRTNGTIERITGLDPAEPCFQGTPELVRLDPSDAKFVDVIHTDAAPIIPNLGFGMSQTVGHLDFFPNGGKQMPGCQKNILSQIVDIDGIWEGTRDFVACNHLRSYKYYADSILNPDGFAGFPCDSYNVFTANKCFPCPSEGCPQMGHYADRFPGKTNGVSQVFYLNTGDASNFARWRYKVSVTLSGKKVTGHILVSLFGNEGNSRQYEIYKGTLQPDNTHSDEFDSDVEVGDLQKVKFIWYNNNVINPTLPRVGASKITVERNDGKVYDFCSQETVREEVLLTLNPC

## CCCCCCCCCCCCCCCCOc1nc2ccc(C)cc2c(=O)o1 [ATL-962, 2-hexadecyloxy-6-methyl-4H-3,1-benzoxazin-4-one]
[1]
  safety and tolerability, phase IIb: safe and generally well tolerated
[2]
  safety and tolerability, phase Ib: safe and well tolerated
[3]
  toxicity in preclinical studies: no toxicity was observed

## CC[C@@H](C)[C@@H](O)[C@H](C)C(=O)[C@H](C)/C=C(\C)C[C@H](C)[C@@H]1OC(=O)[C@H]1CC [Ebelactone B]
[4]
  carragheenin induced swelling: reduces carragheenin induced swelling

## CCCCCCC[C@@H](C[C@@H]1OC(=O)[C@H]1CCCCCCCC(C)C)OC(=O)[C@H](C)NC=O [Panclicin A]
Plasma lipases
  potency against plasma lipases compared with THL: same potency as THL
[5]
  mode of inhibition of pancreatic lipase (irreversibility): irreversibly inhibit pancreatic lipase

## CCCCCCC[C@@H](C[C@@H]1OC(=O)[C@H]1CCCCCCCC(C)C)OC(=O)CNC=O [Panclicin C]
[5]
  mode of inhibition of pancreatic lipase (irreversibility): irreversibly inhibit pancreatic lipase

## CCCCCCCCCC[C@@H]1C(=O)O[C@H]1C[C@H](CCCCCCC)OC(=O)CNC=O [Panclicin D]
[5]
  mode of inhibition of pancreatic lipase (irreversibility): irreversibly inhibit pancreatic lipase

## CCCCCCCCCCCC[C@@H]1C(=O)O[C@H]1C[C@H](CCCCCCC)OC(=O)CNC=O [Panclicin E]
[5]
  mode of inhibition of pancreatic lipase (irreversibility): irreversibly inhibit pancreatic lipase

## CCCCCCCCCCC[C@@H](C[C@@H]1OC(=O)[C@H]1CCCCCC)OC(=O)[C@H](CC(C)C)NC=O [tetrahydrolipstatin, (2S,3S,5S)-5-((S)-2-4-methylvaleryloxy)-2-heyl-3-hydroxy-hexadecanoic acid lactone]
[2]; orlistat 120 mg tid
  fat excreted, average: 5.6 (+/−3.8) g/day
